Results as given in patent US20130203815A1, “CYTOKINE INHIBITORS” (PIRAMAL ENTERPRISES LIMITED, priority 2010, published 2013).
Counter-ions that a name gives are not always drawn.

What was measured:
Type in all cases: cell-based
[1] = system: TNF-α; assay: Whole blood cell culture assay, LPS-induced TNF-α release; settings: Homo sapiens, at a concentration of 10 μM, LPS 1 μg/ml, 4.5 hours
Method: TNF-α production by lipopolysaccharide (LPS) in whole blood was measured according to the method described in literature (J. Immunol. Methods, 1991, 139, 233-240).
Blood was collected from healthy donors into potassium EDTA vacutainer tubes (Becton Dickinson) and diluted with RPMI (Roswell Park Memorial Institute) 1640 culture medium (Gibco BRL, Pasley, UK) containing 100 U/ml penicillin and 100 μg/ml streptomycin, (100× solution, Sigma Chemical Co. St Louis, Mo.) with no added serum. The white blood cell count was adjusted to 1×10^6 cells/ml and 100 it/well of the diluted blood was transferred into 96-well culture plates. Following cell plating, 79 μl of culture medium and 1 μl of the test compounds (final concentration 1 μM and 10 μM) dissolved in DMSO was added to the cells. The final concentration of DMSO was adjusted to 0.5%. 1 μl of vehicle (0.5% DMSO) was used as control. Rolipram (300 μM) was used as a standard compound. The plates were incubated for 30 minutes at 37° C. in an atmosphere of 5% CO2. Finally, 20 μl (10 μg/ml) per well of LPS (Escherchia coli 0127:B8, Sigma Chemical Co. St. Louis, Mo.) was added, for a final concentration of 1 μg/ml. Plates were incubated at 37° C. for 4.5 hours in an atmosphere of 5% CO2. Supernatants were harvested and assayed for TNF-α by ELISA as described by the manufacturer (OptiEIA ELISA sets, BD Biosciences, Pharmingen). Percent inhibition of TNF-α release in comparison to the control was calculated.

[2] = system: IL-1β; assay: hPBMCs assay, LPS-induced IL-1β; settings: Homo sapiens, LPS 1 μg/ml, 5 hours, ELISA
Method: (§1) TNF-α production by lipopolysaccharides (LPS) in hPBMCs was measured according to the method described in literature (Physiol. Res., 2003, 52, 593-598). Blood was collected from healthy donors into Potassium EDTA vacutainer tubes (BD vacutainer). The PBMCs were isolated using gradient centrifugation in Histopaque-1077 solution (Sigma). Isolated PBMC were suspended in RPMI 1640 culture medium (Sigma-Aldrich Fine Chemicals, USA), containing 10% fetal bovine serum (FBS) (JRH, USA), 100 U/ml penicillin (Sigma Chemical Co. St Louis, Mo.) and 100 μg/ml streptomycin (Sigma Chemical Co. St Louis, Mo.). The cell concentration was adjusted to 1×10^6 cells/ml. The viability as determined by trypan blue dye exclusion was uniformly ≧98%. The cell suspension (100 μl) was added to the wells of a 96-well culture plate. Following cell plating, 79 μl of the culture medium and 1 μl of eight different concentrations of the test compounds (final concentration 0.03, 0.1, 0.3, 1, 3, 10, 30, 100 μg/ml) dissolved in DMSO were added to the cells. The final concentration of DMSO was adjusted to 0.5%. The vehicle (0.5 DMSO) was used as control. Rolipram (300 μM) was used as a standard compound. The plates were incubated for 30 minutes at 37° C. in an atmosphere of 5% CO2. Finally, 20 μl (10 μg/ml) per well of LPS, (Escherchia coli 0127:B8, Sigma Chemical Co., St. Louis, Mo.) was added, for a final concentration of 1 µg/ml. The plates were incubated at 37° C. for 5 hours in an atmosphere of 5% CO2. To assess the cytotoxic effect of the test compounds, the cellular viability test was performed using MTS (3-(4,5-dimethylthiazol-2-yl)-5-(3-carboxymethoxyphenyl)-2-(4-sulfonyl)-2H-tetrazolium) reagent after 5 hours of incubation. Supernatants were harvested and assayed for TNF-α, interleukin-1β (IL-1β), interleukin-6 (IL-6) and interleukin-8 (IL-8) by ELISA as described by the manufacturer. (OptiEIA ELISA sets, BD Biosciences, Pharmingen). […]

[3] = system: IL-6; assay: hPBMCs assay, LPS-induced IL-6; settings: Homo sapiens, LPS 1 μg/ml, 5 hours, ELISA
Method: as §1

[4] = system: IL-8; assay: hPBMCs assay, LPS-induced IL-8; settings: Homo sapiens, LPS 1 μg/ml, 5 hours, ELISA
Method: as §1

[5] = system: TNF-α; assay: hPBMCs assay, LPS-induced TNF-α; settings: Homo sapiens, LPS 1 μg/ml, 5 hours, ELISA
Method: as §1

Row | SMILES | inhibition at 10 µM [1] | IC50 [2] | IC50 [3] | IC50 [4] | IC50 [5]
1 | COc1cc(OC)c(C2CCN(C)C2CO)c(O)c1C(=O)C=Cc1ccccc1Cl (racemic) [Example 20, (+/−)3-(2-Chlorophenyl)-1-(2-hydroxy-3-(2-(hydroxymethyl)-1-methylpyrrolidin-3-yl)-4,6-dimethoxy-phenyl)prop-2-en-1-one hydrochloride] | 66% | 800 nM | 4900 nM | 6500 nM | 900 nM
2 | COc1cc(OC)c(C2CCN(C)C2CO)c(O)c1C(=O)C=Cc1cccc(Br)c1 (racemic) [Example 21, (+/−)3-(3-Bromophenyl)-1-(2-hydroxy-3-(2-(hydroxymethyl)-1-methylpyrrolidin-3-yl)-4,6-dimethoxy-phenyl)prop-2-en-1-one] | 61% | 200 nM | 2300 nM | 5200 nM | 800 nM
3 | COc1cc(OC)c(C2CCN(C)C2CO)c(O)c1C(=O)C=Cc1cccc(C)c1 (racemic) [Example 23, (+/−)1-(2-Hydroxy-3-(2-(hydroxymethyl)-1-methylpyrrolidin-3-yl)-4,6-dimethoxy-phenyl)-3-m-tolylprop-2-en-1-one] | 32% |  |  |  | 
4 | COc1cc(OC)c(C2CCN(C)C2CO)c(O)c1C(=O)C=Cc1cccc([N+](=O)[O-])c1 (racemic) [Example 25, (+/−)1-(2-Hydroxy-3-(2-(hydroxymethyl)-1-methylpyrrolidin-3-yl)-4,6-dimethoxy-phenyl)-3-(3-nitrophenyl)prop-2-en-1-one] | 68% | 100 nM | 2500 nM | 5400 nM | 500 nM
5 | COc1cc(OC)c(C2CCN(C)C2CO)c(O)c1C(=O)C=Cc1ccc(Cl)cc1 (racemic) [Example 28, (+/−)3-(4-Chlorophenyl)-1-(2-hydroxy-3-(2-(hydroxymethyl)-1-methylpyrrolidin-3-yl)-4,6-dimethoxy-phenyl)prop-2-en-1-one] | 30% |  |  |  | 
6 | COc1cc(OC)c(C2CCN(C)C2CO)c(O)c1C(=O)C=Cc1ccc(F)cc1 (racemic) [Example 29, (+/−)3-(4-Fluorophenyl)-1-(2-hydroxy-3-(2-(hydroxymethyl)-1-methylpyrrolidin-3-yl)-4,6-dimethoxy-phenyl)prop-2-en-1-one] | 31% |  |  |  | 
7 | COc1cc(OC)c(C2CN(C)C(=O)C2CO)c(O)c1C(=O)C=Cc1ccccc1Cl (racemic) [Example 39, (+/−)4-(3-(3-(2-Chlorophenyl)acryloyl)-2-hydroxy-4,6-dimethoxy-phenyl)-3-(hydroxymethyl)-1-methylpyrrolidin-2-one] | 75% |  |  |  | 
8 | COc1cc(OC)c(C2CCN(C)C2CO)c(O)c1C(=O)C=Cc1ccc(C)o1 (racemic) [Example 45, (+/−)1-(2-Hydroxy-3-(2-(hydroxymethyl)-1-methylpyrrolidin-3-yl)-4,6-dimethoxy-phenyl)-3-(5-methylfuran-2-yl)prop-2-en-1-one] | 54% |  |  |  | 
9 | COc1cc(OC)c(C2CCN(C)C2CO)c(O)c1C(=O)C=Cc1cccnc1 (racemic) [Example 48, (+/−)1-(2-Hydroxy-3-(2-(hydroxymethyl)-1-methylpyrrolidin-3-yl)-4,6-dimethoxy-phenyl)-3-(pyridin-3-yl)prop-2-en-1-one] | 61% |  |  |  | 
